Values quoted from earlier work as cited in patent US6544961B1, “Combinations comprising VX478, zidovudine, FTC and/or 3TC for use in the treatments of HIV” (SmithKline Beecham Corporation, priority 1996, dated 2003).

Test system: HIV
Details: European Patent Specification No. 384536

Nc1ccn(C2CSC(CO)O2)c(=O)n1 (racemic) [BCH-189, 4-amino-1-(2-hydroxymethyl-1,3-oxathiolan-5-yl)-(1H)-pyrimidin-2-one]
anti-HIV activity: have been found to have anti-HIV activity
